# Source: ChEMBL document CHEMBL3585336, “Synthesis and evaluation of quinazoline amino acid derivatives as mono amine oxidase (MAO) inhibitors” (Bioorg Med Chem, 2015)
# Legend:
# [1] = target: T1, Amine oxidase [flavin-containing] A (Bos taurus, UniProt P21398); assay: Inhibition of bovine brain mitochondria MAO-A using serotonin substrate after 60 mins by fluorimetric method
# T1 sequence (P21398 whole entry): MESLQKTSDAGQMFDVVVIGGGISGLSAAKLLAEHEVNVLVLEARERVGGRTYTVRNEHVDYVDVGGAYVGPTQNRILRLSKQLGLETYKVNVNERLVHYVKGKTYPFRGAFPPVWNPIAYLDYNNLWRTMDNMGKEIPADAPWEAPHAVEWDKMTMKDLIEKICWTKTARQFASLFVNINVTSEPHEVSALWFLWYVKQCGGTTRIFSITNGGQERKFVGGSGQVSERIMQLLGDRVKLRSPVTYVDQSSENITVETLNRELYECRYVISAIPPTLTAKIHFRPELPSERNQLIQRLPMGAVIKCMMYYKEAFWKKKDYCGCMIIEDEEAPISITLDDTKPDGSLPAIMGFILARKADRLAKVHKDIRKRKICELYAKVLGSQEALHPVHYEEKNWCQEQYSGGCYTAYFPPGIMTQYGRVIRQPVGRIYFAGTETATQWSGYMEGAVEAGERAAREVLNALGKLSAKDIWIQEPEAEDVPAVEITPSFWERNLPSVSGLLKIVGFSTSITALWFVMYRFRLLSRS
# [2] = target: T2, Amine oxidase [flavin-containing] B (Bos taurus, UniProt P56560); assay: Inhibition of bovine brain mitochondria MAO-B using benzylamine substrate after 60 mins by fluorimetric method
# T2 sequence (P56560 whole entry): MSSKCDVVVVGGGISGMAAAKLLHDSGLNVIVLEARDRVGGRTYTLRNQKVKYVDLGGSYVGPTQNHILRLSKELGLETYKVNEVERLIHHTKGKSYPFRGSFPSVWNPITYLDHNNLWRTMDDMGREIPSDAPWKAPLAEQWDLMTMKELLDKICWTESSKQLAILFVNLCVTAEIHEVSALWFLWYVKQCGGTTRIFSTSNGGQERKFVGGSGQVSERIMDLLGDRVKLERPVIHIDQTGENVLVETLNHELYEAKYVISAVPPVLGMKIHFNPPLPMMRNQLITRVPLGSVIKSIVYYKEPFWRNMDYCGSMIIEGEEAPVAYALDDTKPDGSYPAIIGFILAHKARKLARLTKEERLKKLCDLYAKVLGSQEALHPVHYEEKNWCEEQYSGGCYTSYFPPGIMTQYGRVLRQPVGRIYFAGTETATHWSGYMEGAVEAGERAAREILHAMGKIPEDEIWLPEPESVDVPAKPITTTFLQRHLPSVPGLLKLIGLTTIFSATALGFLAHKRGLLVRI
# [3] = system: Mus musculus; assay: Acute toxicity in mouse at 300 mg/kg, po after 24 hrs; assay type: organism-based; conditions: in vivo
# [4] = system: Mus musculus; assay: Acute toxicity in mouse at 125 mg/kg, ip after 24 hrs; assay type: organism-based; conditions: in vivo
Structure (SMILES),IC50 [1],IC50 [2],Activity [3],Activity [4]
COC(=O)[C@H](Cc1ccccc1)NC(=O)c1ccccc1N,0.038 µM,680 µM,Non-toxic,Non-toxic
COC(=O)CCNC(=O)c1ccccc1N,0.062 µM,560 µM,Non-toxic,Non-toxic
COC(=O)CCCNC(=O)c1ccccc1N,0.071 µM,460 µM,Non-toxic,Non-toxic
COC(=O)CCCCCNC(=O)c1ccccc1N,0.056 µM,440 µM,Non-toxic,Non-toxic
COC(=O)CN1C(=O)c2ccccc2NC1c1ccccc1 (stereo not drawn),,,Non-toxic,Non-toxic
COC(=O)CN1C(=O)c2ccccc2NC1c1ccc2c(c1)OCO2 (stereo not drawn),0.061 µM,740 µM,Non-toxic,Non-toxic
COC(=O)CN1C(=O)c2ccccc2NC1c1ccco1 (stereo not drawn),0.044 µM,380 µM,Non-toxic,Non-toxic
COC(=O)CN1C(=O)c2ccccc2NC1c1ccc(Cl)cc1 (stereo not drawn),0.0036 µM,88 µM,Non-toxic,Non-toxic
COC(=O)CN1C(=O)c2ccccc2NC1c1ccc(OC)cc1 (stereo not drawn),0.048 µM,560 µM,Non-toxic,Non-toxic
COC(=O)C(C)N1C(=O)c2ccccc2NC1c1ccccc1 (stereo not drawn),0.039 µM,460 µM,Non-toxic,Non-toxic
COC(=O)C(C)N1C(=O)c2ccccc2NC1c1ccc2c(c1)OCO2 (stereo not drawn),0.0028 µM,86 µM,Non-toxic,Non-toxic
COC(=O)C(C)N1C(=O)c2ccccc2NC1c1ccco1 (stereo not drawn),0.0082 µM,61 µM,Non-toxic,Non-toxic
COC(=O)C(Cc1ccccc1)N1C(=O)c2ccccc2NC1c1ccco1 (stereo not drawn),0.073 µM,340 µM,Non-toxic,Non-toxic
COC(=O)C(Cc1ccccc1)N1C(=O)c2ccccc2NC1c1ccc(Cl)cc1 (stereo not drawn),0.042 µM,540 µM,Non-toxic,Non-toxic
NNC(=O)CN1C(=O)c2ccccc2NC1c1ccccc1 (stereo not drawn),0.038 µM,310 µM,Non-toxic,Non-toxic
NNC(=O)CN1C(=O)c2ccccc2NC1c1ccc2c(c1)OCO2 (stereo not drawn),0.0021 µM,83 µM,Non-toxic,Non-toxic
NNC(=O)CN1C(=O)c2ccccc2NC1c1ccco1 (stereo not drawn),0.036 µM,560 µM,Non-toxic,Non-toxic
NNC(=O)CN1C(=O)c2ccccc2NC1c1ccc(Cl)cc1 (stereo not drawn),0.048 µM,940 µM,Non-toxic,Non-toxic
COc1ccc(C2Nc3ccccc3C(=O)N2CC(=O)NN)cc1 (stereo not drawn),0.082 µM,890 µM,Non-toxic,Non-toxic

Structure (SMILES),IC50 [1],IC50 [2],Activity [3],Activity [4]
CC(C(=O)NN)N1C(=O)c2ccccc2NC1c1ccco1 (stereo not drawn),0.032 µM,310 µM,Non-toxic,Non-toxic
NNC(=O)C(Cc1ccccc1)N1C(=O)c2ccccc2NC1c1ccco1 (stereo not drawn),0.028 µM,220 µM,Non-toxic,Non-toxic
NNC(=O)C(Cc1ccccc1)N1C(=O)c2ccccc2NC1c1ccc(Cl)cc1 (stereo not drawn),0.018 µM,120 µM,Non-toxic,Non-toxic
COC(=O)CCN1C(=O)c2ccccc2NC1c1ccccc1 (stereo not drawn),0.092 µM,860 µM,Non-toxic,Non-toxic
COC(=O)CCN1C(=O)c2ccccc2NC1c1ccc2c(c1)OCO2 (stereo not drawn),0.084 µM,170 µM,Non-toxic,Non-toxic
COC(=O)CCN1C(=O)c2ccccc2NC1c1ccc(Cl)cc1 (stereo not drawn),0.098 µM,720 µM,Non-toxic,Non-toxic
COC(=O)CCCN1C(=O)c2ccccc2NC1c1ccccc1 (stereo not drawn),0.063 µM,540 µM,Non-toxic,Non-toxic
COC(=O)CCCN1C(=O)c2ccccc2NC1c1ccc2c(c1)OCO2 (stereo not drawn),0.088 µM,660 µM,Non-toxic,Non-toxic
COC(=O)CCCN1C(=O)c2ccccc2NC1c1ccco1 (stereo not drawn),0.096 µM,780 µM,Non-toxic,Non-toxic
COC(=O)CCCCCN1C(=O)c2ccccc2NC1c1ccc2c(c1)OCO2 (stereo not drawn),0.084 µM,820 µM,Non-toxic,Non-toxic
COC(=O)CCCCCN1C(=O)c2ccccc2NC1c1ccc(Cl)cc1 (stereo not drawn),0.044 µM,290 µM,Non-toxic,Non-toxic
COC(=O)CCCCCNC(=O)c1ccccc1/N=C/c1ccccc1,0.064 µM,540 µM,Non-toxic,Non-toxic
NNC(=O)CCN1C(=O)c2ccccc2NC1c1ccccc1 (stereo not drawn),0.016 µM,210 µM,Non-toxic,Non-toxic
NNC(=O)CCN1C(=O)c2ccccc2NC1c1ccc2c(c1)OCO2 (stereo not drawn),0.032 µM,380 µM,Non-toxic,Non-toxic
NNC(=O)CCN1C(=O)c2ccccc2NC1c1ccc(Cl)cc1 (stereo not drawn),0.051 µM,420 µM,Non-toxic,Non-toxic
NNC(=O)CCCN1C(=O)c2ccccc2NC1c1ccccc1 (stereo not drawn),0.047 µM,370 µM,Non-toxic,Non-toxic
NNC(=O)CCCN1C(=O)c2ccccc2NC1c1ccc2c(c1)OCO2 (stereo not drawn),0.082 µM,420 µM,Non-toxic,Non-toxic
NNC(=O)CCCN1C(=O)c2ccccc2NC1c1ccco1 (stereo not drawn),0.036 µM,270 µM,Non-toxic,Non-toxic
C#CCN(C)CCCOc1ccc(Cl)cc1Cl [CLORGILINE],,,Non-toxic,Non-toxic
